Measurements as given in patent publication US20230041859A1, “USE OF TERPENOIDS IN THE TREATMENT OR PREVENTION OF FIBROTIC DISEASES” (Arjil Biotech Holding Company Limited, priority 2021, published 2023).

Tests used:
[1] = tested on: cisplatin-induced renal injury; assay: Cisplatin-induced renal injury: kidney histopathology (H&E); assay type: in vivo, mice; details: compound, dose not given
Source text: Kidney histopathology The anterior portion of the left lateral liver lobe from each mouse is fixed in 10% formaldehyde phosphate buffer, embedded in paraffin, cut into 5 μm sections, and then treated with an hematoxylin and eosin (H&E) stain for histological examination under the light microscopy (Nikon, ECLIPSE, TS100, Tokyo, Japan). Images are captured with a digital camera (NIS-Elements D 2.30, SP4, Build 387) at an original magnification of 400×.
(§1) Seven-to-eight-week-old male C57BL/6 mice are obtained from the BioLASCO Taiwan Co., Ltd. (Taipei, Taiwan). The animals are housed in Plexiglas cages at a constant temperature of 22±1° C. and a relative humidity of 55±5% on a 12 h dark-light cycle for at least 2 weeks before the experiment. Animals are provided food and water ad libitum. All experimental procedures are performed according to the guidelines of the Institutional Animal Ethics Committee, and the protocol is approved by the Committee for the Purpose of Control and Supervision of Experiments on Animals.
Renal fibrosis is induced via multiple injections of low-dose cisplatin. […]
The histopathological changes are analyzed to determine whether Antrodia camphorata extract and compounds affected renal failure in cisplatin-stimulated mice. […]

[2] = tested on: Con A-induced acute hepatitis; assay: Con A (concanavalin A) induced acute hepatitis in BALB/c mice; assay type: in vivo; details: 24 h after Con A; mean±SEM; vehicle 1.4±0.2
Source text: Intravenous injection of concanavalin A (Con A) is a widely used strategy to study T cell mediated hepatitis. Con A is a lectin that can activate CD4^+ T cells, produce cytokines, and lead to liver cell damage. Dexamethasone (Dex) is a long acting synthetic corticosteroid, and has been used as anti-inflammatory and immunosuppressive medication.
Male BALB/c mice (7-9 weeks old) were purchased from BioLASCO Taiwan Co., Ltd or National Laboratory Animal Center (NLAC, Taiwan). Animals are housed five per cage with food and water provided ad libitum throughout the experiments. Room temperature is maintained at 23±2° C. with an alternating 12 h light dark cycle. Animals are acclimatized for one week to minimize the effect of stress before the experiments. All experimental protocols involving animals and their care are approved by the Institutional Animal Care and Use Committee (IACUC) in ITRI (ITRI-IACUC-2018-041 and ITRI-IACUC-2018-050; accredited by AAALAC) and are carried out according to the regulations of the Council of Agriculture, Taiwan. […]
To assess the level of hepatocellular injury after Con A treatment, serum GPT and GOT levels are measured by Fuji Dri-Chem slides (Fuji, Japan). […] Cytokine levels are measured by ProcartaPlex™ immunoassays kit according to manufacturer's instructions. […]

[3] = tested on: CCl4-induced chronic liver fibrosis; assay: CCl4-induced chronic liver fibrosis in rat; details: in vivo
Description: Blood samples are collected at week 0, 2, 4, 6, and 8. The animals are sacrificed at the end of the 8-week for histopathological examinations. FIGS. 7A, 7B, 7C depict delta weight, liver weight, and liver/body-weight ratio, respectively.
The level of clinical biochemistry such as aspartate aminotransferase (AST), alanine aminotransferase (ALT), is evaluated to determine the enzymatic activities of the livers of the control groups and the experimental groups (shown in FIGS. 8A-8C).

[4] = tested on: cisplatin-induced renal injury; assay: Mice model of cisplatin-induced renal injury: serum creatinine (CRE) and BUN; assay type: in vivo; details: compounds, dose not given, daily for 7 days; p<0.001 vs cisplatin group
Description: Determination of biochemical parameters Serum creatinine and serum urea are assessed using colorimetric kits according to manufacturer's instructions. Kits of the former markers are purchased from (HUMAN Diagnostics Worldwide, Magdeburg, Germany) with a chemical analyzer (Roche Diagnostics, Cobas Mira Plus, Rotkreuz, Switzerland).
as §1
Renal fibrosis is induced via multiple injections of low-dose cisplatin. Intraperitoneal injections of cisplatin (5 mg/kg/injection; P4394, Sigma-Aldrich, St Louis, Mo.) are performed at 0, 1, and 3 weeks, for a total of 3 injections. Mice are sacrificed at 6 weeks after the first dose of cisplatin (n=6). To analyze the effects of samples, mice are given daily intraperitoneal injections for 7 days, starting from 4 weeks after first dose of cisplatin, and sacrificed at […] (n=6). […]

[5] = tested on: NO, TNF-α, IL-1β, and IL-6; assay: Cisplatin-induced renal injury: pro-inflammatory cytokines in serum (ELISA); assay type: in vivo, mice; details: compound, dose not given
Description: TNF-α, IL-6, and IL-1β cytokines in serum The serum concentration of the pro-inflammatory cytokines (i.e. tumor necrosis factor-α (TNF-α), interleukin-6 (IL-6), and IL-1β) in serum are assessed with relevant enzyme-linked immunosorbent assay (ELISA) kits (Biosource International Inc., Sunnyvale, Calif., USA), based on the manufacturer's instructions.
as §1
Renal fibrosis is induced via multiple injections of low-dose cisplatin. Intraperitoneal injections of cisplatin (5 mg/kg/injection; P4394, Sigma-Aldrich, St Louis, Mo.) are performed at 0, 1, and 3 weeks, for a total of 3 injections. Mice are sacrificed at 6 weeks after the first dose of cisplatin (n=6). […]

[6] = tested on: HepG2 cells; assay: Oleic acid-induced steatosis in HepG2 cells (Oil Red O); assay type: cell-based, human; details: 6 h pre-treatment, then 0.5 mM OA for 24 h, OD 510 nm, at noncytotoxic concentration
Description: Oleic acid (OA) induced steatosis in HepG2 cells and may consider an in vitro model for human fatty liver disease. HepG2 cells were treated with different concentrations of oleic acid (OA) to induce steatosis. Intracellular lipid was stained by Oil Red O (ORO), and quantified by colorimetric assay. 0.5 mM OA was chosen for further studies (FIGS. 37 and 38). HepG2 cells were treated with test compounds ([…]) and incubated for 48 h (FIG. 39). HepG2 cells were seeded in 24-well plates and deprived from FBS for 24 h. These cells were then treated with different concentrations of test compounds for 6 h before induced with 0.5 mM OA for 24 h. Cells were gently washed with PBS and fixed using paraformaldehyde at RT, then stained with Oil Red (ORO) solution for 30 min at RT. ORO stain was extracted using pure isopropanol and the optical density was detected at 510 nm (FIG. 40).

C=C1C(=O)O[C@H]2/C=C(\C)CC3C=C(CC/C=C(\C)CC[C@H]12)C(=O)O3 (stereo partly drawn) [AR100-DS1, Ovatodiolide]
necrosis and inflammatory infiltrating cells in the kidney tissue [1]: significantly improved
liver necrosis histopathological score (0 to 4) [2]: 0.2±0.2
CCl4-induced liver injury, overall [3]: potential to partially repair
renal protection effect (normalization of serum CRE and BUN) [4]: significant renal protection effect
NO, TNF-α, IL-1β, and IL-6 production after cisplatin challenge [5]: improved
OA-induced steatosis in HepG2 cells [6]: inhibition
